For the experiment, the target named is T1, Human ATX protein (Homo sapiens, UniProt Q13822).
T1 construct: made in house
Nature of the experiment: Autotaxin (ATX) assay, FRET with FS-3 substrate. The format is biochemical. Summed up:
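Hydrolysis of the FRET substrate FS-3 (2 μM final) unquenches fluorescein, read at excitation 485 nm and emission 538 nm after 2 h at room temperature, protected from light. Purified human ATX (1.0 μg/mL) and compound were first incubated for 30 min in pH 7.4 Tris/salt buffer containing 1 mg/mL fatty acid-free BSA.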

[1] abbreviates: upper bound bins (no greater than 100, 250 or 500 nM), FS-3 2 μM, ATX 1.0 μg/mL.

We go through 48 compounds from US20160039825A1 (BIOGEN MA INC., priority 2013, published 2016).

The term IC50 denotes the concentration needed to halve the response being measured. Lower therefore signals greater potency. Broadly, the inhibition is the share of the control response that was lost under treatment. A low value points to little suppression.

Consider `O=C(OCc1cc(Cl)cc(C(F)(F)F)c1)N1CCCn2nc(C(=O)N3CCNCC3C(F)(F)F)cc2C1` (stereo not drawn) [Example 181], for which the IC50 under setting [1] was not above 100 nM. Still for that read-out and setting: as for `CN1CCC(c2cc3n(n2)CCCN(C(=O)OCc2cc(C(F)(F)F)cc(C(F)(F)F)c2)C3)CC1` [Example 372, 3,5-bis(trifluoromethyl)benzyl 2-(1-methylpiperidin-4-yl)-7,8-dihydro-4H-pyrazolo[1,5-a][1,4]diazepine-5(6H)-carboxylate], the figure is not above 100 nM; as for `CCC1CC(Nc2cc3n(n2)CCCN(C(=O)OCc2cc(C(F)(F)F)cc(C(F)(F)F)c2)C3)CCN1` (stereo not drawn) [Example 323], not above 100 nM. On to `CC(C)(C)C1CC(Nc2cc3n(n2)CCCN(C(=O)OCc2cc(C(F)(F)F)cc(C(F)(F)F)c2)C3)CCN1` (stereo not drawn) [Example 319], for which the IC50 under setting [1] was not above 100 nM. Regarding `CC1CC(Nc2cc3n(n2)CCCN(C(=O)OCc2cc(C(F)(F)F)cc(C(F)(F)F)c2)C3)CC(C)N1` (stereo not drawn) [Example 322], under setting [1], the IC50 is not above 100 nM. Under setting [1], `O=C(OCc1cc(C(F)(F)F)cc(C(F)(F)F)c1)N1CCCn2nc(-c3ccncc3)cc2C1` [Example 367] registered an IC50 not above 100 nM. Still for that read-out and setting: as for `O=C(OCc1cc(C(F)(F)F)cc(C(F)(F)F)c1)N1CCCn2nc(CN3CCC(F)CC3)cc2C1` [Example 510], the figure is not above 100 nM; as for `O=C(OCc1cc(C(F)(F)F)cc(C(F)(F)F)c1)N1CCCn2nc(N3CCNC4(CC4)C3)cc2C1` [Example 348], not above 100 nM; as for `NS(=O)(=O)c1cc2n(n1)CCCN(C(=O)OCc1cc(C(F)(F)F)cc(C(F)(F)F)c1)C2` [Example 301, 3,5-bis(trifluoromethyl)benzyl 2-sulfamoyl-7,8-dihydro-4H-pyrazolo[1,5-a][1,4]diazepine-5(6H)-carboxylate], not above 250 nM.

Turning to `CN1CCN(C(=O)c2cc3n(n2)CCCN(C(=O)OCc2cc(Cl)cc(C(F)(F)F)c2)C3)CC1C(=O)O` (stereo not drawn) [Example 185], the IC50 under setting [1] was not above 100 nM. The same measure, in the same setting: next, `CCC1CN(C(=O)c2cc3n(n2)CCCN(C(=O)OCc2cc(Cl)cc(C(F)(F)F)c2)C3)CCN1` (stereo not drawn) [Example 206]: not above 100 nM; `O=C(OCc1cc(Cl)cc(C(F)(F)F)c1)N1CCCn2nc(C(=O)N3CCC4(CCNCC4)C3)cc2C1` [Example 169]: not above 100 nM. The same measure, in the same setting: as for `CCOC(=O)c1cc2n(c1)CCCN(C(=O)OCc1cc(C(F)(F)F)cc(C(F)(F)F)c1)C2` [Example 106, 2-(3,5-Bis(trifluoromethyl)benzyl) 8-ethyl 4,5-dihydro-1H-pyrrolo[1,2-a][1,4]diazepine-2,8(3H)-dicarboxylate], the figure is not above 100 nM; as for `CC(Nc1cc2n(n1)CCCN(C(=O)OCc1cc(C(F)(F)F)cc(C(F)(F)F)c1)C2)C(=O)O` (stereo not drawn) [Example 361, 2-((5-(((3,5-bis(trifluoromethyl)benzyl)oxy)carbonyl)-5,6,7,8-tetra-hydro-4H-pyrazolo[1,5-a][1,4]diazepin-2-yl)amino)propanoic acid], not above 250 nM.

For `O=C(OCc1cc(Cl)cc(C(F)(F)F)c1)N1CCCn2nc(C(=O)N3CCN4CCC[C@@H]4C3)cc2C1` [Example 214], under setting [1], the IC50 is not above 100 nM.

With `O=C(OCc1cc(C(F)(F)F)cc(C(F)(F)F)c1)N1CCn2nc(C3=CCCNC3)cc2C1` [Example 444], under setting [1], the IC50 is not above 100 nM.

Take `CC(C)(C)OC(=O)N1CCN(C(=O)c2cc3n(n2)CCN(C(=O)OCc2cc(Cl)cc(C(F)(F)F)c2)C3)C(C)(C)C1` [Example 475]: under setting [1], the IC50 is not above 100 nM. Take `O=C(NC1CC1)c1cc2n(n1)CCCN(C(=O)OCc1cc(C(F)(F)F)cc(C(F)(F)F)c1)C2` [Example 503]: under setting [1], the IC50 was not above 100 nM.

In turn, `O=C(OCc1cc(C(F)(F)F)cc(C(F)(F)F)c1)N1CCCn2nc(N3CCN(CCO)CC3)cc2C1` [Example 358] registered a 50% inhibitory concentration (IC50) under setting [1] not above 100 nM. On the same count and under the same terms, as for `O=C(OCc1cc(C(F)(F)F)cc(C(F)(F)F)c1)N1CCCn2nc(N3CCN4CCC[C@H]4C3)cc2C1` [Example 346], the figure is not above 100 nM; as for `CC(C(=O)O)c1cc2n(n1)CCCN(C(=O)OCc1cc(C(F)(F)F)cc(C(F)(F)F)c1)C2` (stereo not drawn) [Example 387, 2-(5-(((3,5-bis(Trifluoromethyl)benzyl)oxy)carbonyl)-5,6,7,8-tetrahydro-4H-pyrazolo[1,5-a][1,4]diazepin-2-yl)propanoic acid], not above 100 nM; as for `O=C(OCc1cc(Cl)cc(C(F)(F)F)c1)N1CCCn2nc(-c3ccncc3)cc2C1` [Example 369, 3-chloro-5-(trifluoromethyl)benzyl 2-(pyridin-4-yl)-7,8-dihydro-4H-pyrazolo[1,5-a][1,4]diazepine-5(6H)-carboxylate], not above 100 nM. On the same count and under the same terms, next, `COC(=O)C1CCN(C(=O)c2cc3n(n2)CCN(C(=O)OCc2cc(C(F)(F)F)cc(C(F)(F)F)c2)C3)CC1` [Example 494]: not above 100 nM. Compound `O=C(OCc1cc(C(F)(F)F)cc(C(F)(F)F)c1)N1CCCn2nc(NC3CCCNC3)cc2C1` (stereo not drawn) [Example 317] came in with an IC50 under setting [1] not above 250 nM. As for `NC1CN(C(=O)c2cc3n(n2)CCN(C(=O)OCc2cc(Cl)cc(C(F)(F)F)c2)C3)C1` [Example 431], the IC50 under setting [1] was not above 100 nM. The same measure, in the same setting: next, `O=C(OCc1cc(Cl)cc(Cl)c1)N1CCCn2nc(C(=O)N3CCC(F)CC3)cc2C1` [Example 20, 3,5-Dichlorobenzyl 2-(4-fluoropiperidine-1-carbonyl)-7,8-dihydro-4H-pyrazolo[1,5-a][1,4]diazepine-5(6H)-carboxylate]: not above 100 nM. Under setting [1], `O=C(O)C1CC2CCCC(C1)N2C(=O)c1cc2n(n1)CCCN(C(=O)OCc1cccc(C(F)(F)F)c1)C2` (stereo not drawn) [Example 58, 9-(5-((3-(Trifluoromethyl)benzyloxy)carbonyl)-5,6,7,8-tetrahydro-4H-pyrazolo[1,5-a][1,4]diazepine-2-carbonyl)-9-aza-bicyclo[3.3.1]nonane-3-carboxylic acid] yielded an IC50 not above 100 nM.

With `CCC1(CC)CNCCN1C(=O)c1cc2n(n1)CCCN(C(=O)OCc1cc(C(F)(F)F)cc(C(F)(F)F)c1)C2` [Example 241], the IC50 under setting [1] was not above 100 nM. For the compound `CC1(C)CN(C(=O)c2cc3n(n2)CCN(C(=O)OCc2cc(C(F)(F)F)cc(C(F)(F)F)c2)C3)CCN1` [Example 436], the IC50 under setting [1] is not above 100 nM. As to `O=C(OCc1cc(C(F)(F)F)cc(C(F)(F)F)c1)N1CCCn2nc(S(=O)(=O)N3CCCCC3)cc2C1` [Example 304], the IC50 under setting [1] was not above 100 nM. Same read-out and setting: as for `CC(c1cc2n(n1)CCN(C(=O)OCc1cc(C(F)(F)F)cc(C(F)(F)F)c1)C2)N1C2CCC1CNC2` (stereo not drawn) [Example 428], the figure is not above 100 nM; as for `O=C(NC1=NCCS1)c1cc2n(n1)CCCN(C(=O)OCc1cc(C(F)(F)F)cc(C(F)(F)F)c1)C2` [Example 173], not above 100 nM. Same read-out and setting: next, `CC1(C)CC(Nc2cc3n(n2)CCCN(C(=O)OCc2cc(C(F)(F)F)cc(C(F)(F)F)c2)C3)CCN1` (stereo not drawn) [Example 320]: not above 100 nM. Same read-out and setting: next, `O=C(OCc1cc(C(F)(F)F)cc(C(F)(F)F)c1)N1CCCn2nc(C(=O)N3CCNCC34CC4)cc2C1` [Example 219]: not above 100 nM.

As for `CCOC(=O)c1cc2n(n1)CCCN(C(=O)OCCc1cc(C(F)(F)F)cc(C(F)(F)F)c1)C2` [Example 141, 5-(3,5-Bis(trifluoromethyl)phenethyl) 2-ethyl 7,8-dihydro-4H-pyrazolo[1,5-a][1,4]diazepine-2,5(6H)-dicarboxylate], the IC50 under setting [1] was not above 500 nM. On the same count and under the same terms, next, `CCOC(=O)c1cc2n(n1)CCN(C(=O)OCc1cc(C(F)(F)F)cc(C(F)(F)F)c1)C2` [Example 403]: not above 100 nM. As for `O=C(OCc1cc(C(F)(F)F)cc(C(F)(F)F)c1)N1CCCn2nc(CO)cc2C1` [Example 282, 3,5-bis(trifluoromethyl)benzyl 2-(hydroxymethyl)-7,8-dihydro-4H-pyrazolo[1,5-a][1,4]diazepine-5(6H)-carboxylate], at 10 µM the inhibition (10 uM compound) was 60%. Under setting [1], `CC(C)(C)OC(=O)N1C2CCC1CN(C(=O)c1cc3n(n1)CCN(C(=O)OCc1cc(Cl)cc(C(F)(F)F)c1)C3)C2` [Example 478] came in with an IC50 not above 100 nM.

Regarding `CC(N)c1cc2n(n1)CCCN(C(=O)OCc1cc(C(F)(F)F)cc(C(F)(F)F)c1)C2` (stereo not drawn) [Example 147, 3,5-Bis(trifluoromethyl)benzyl 2-(1-aminoethyl)-7,8-dihydro-4H-pyrazolo[1,5-a][1,4]diazepine-5(6H)-carboxylate], the IC50 under setting [1] was not above 500 nM. The same measure, in the same setting: as for `O=C1CN(C(=O)c2cc3n(n2)CCCN(C(=O)OCc2cc(Cl)cc(C(F)(F)F)c2)C3)CCN1` [Example 212], the figure is not above 100 nM. `CCN1CC2CN(c3cc4n(n3)CCCN(C(=O)OCc3cc(C(F)(F)F)cc(C(F)(F)F)c3)C4)CC2C1` (stereo not drawn) [Example 350] displayed an IC50 under setting [1] not above 100 nM. As for `O=C(O)C1CN(C(=O)OCc2cc(C(F)(F)F)cc(C(F)(F)F)c2)Cc2ccnn2C1` (stereo not drawn) [Example 415], the IC50 under setting [1] was not above 250 nM.

In turn, `CC(C)(C)OC(=O)N1CCC(c2cc3n(n2)CCCN(C(=O)OCc2cc(C(F)(F)F)cc(C(F)(F)F)c2)C3)C1` (stereo not drawn) [Example 383] returned an IC50 under setting [1] not above 100 nM.

Turning to `COC(=O)C1CN(C(=O)OCc2cc(C(F)(F)F)cc(C(F)(F)F)c2)Cc2ccnn2C1` (stereo not drawn) [Example 406], for the setting “greater than 10 μM”, the IC50 was more than 10000 nM. Take `CCN1CCN(c2cc3n(n2)CCCN(C(=O)OCc2cc(C(F)(F)F)cc(C(F)(F)F)c2)C3)CC1` [Example 354]: the half-inhibitory concentration (IC50) under setting [1] is not above 100 nM. Under setting [1], `O=C(O)C1CC2CCCC(C1)N2C(=O)c1cc2n(n1)CCN(C(=O)OCc1cc(Cl)cc(Cl)c1)C2` (stereo not drawn) [Example 41, 9-(5-(((3,5-Dichlorobenzyl)oxy)carbonyl)-4,5,6,7-tetrahydropyrazolo[1,5-a]pyrazine-2-carbonyl)-9-azabicyclo[3.3.1]nonane-3-carboxylic acid] gave an IC50 not above 100 nM. The same measure, in the same setting: next, `O=C(OCc1cc(Cl)cc(C(F)(F)F)c1)N1CCn2nc(NC3CCNCC3)cc2C1` [Example 274, 3-chloro-5-(trifluoromethyl)benzyl 2-(piperidin-4-ylamino)-6,7-dihydropyrazolo[1,5-a]pyrazine-5(4H)-carboxylate]: not above 100 nM; `CCC(Nc1cc2n(n1)CCCN(C(=O)OCc1cc(C(F)(F)F)cc(C(F)(F)F)c1)C2)C(=O)O` (stereo not drawn) [Example 362]: not above 100 nM.
